Laboratory results reported in the CheMixHub viscosity set.
± gives the uncertainty stated by the source.

Experiment: xn = mol fraction of the nth substance listed

BrC(Br)Br + N#CCc1ccccc1
298.15 K, 101 kPa
Conditions | viscosity [mPa·s]
x1 = 0.1271 | 1.937 ± 0.046
x1 = 0.2393 | 2 ± 0.046
x1 = 0.3546 | 2.087 ± 0.046
x1 = 0.5011 | 2.112 ± 0.047
x1 = 0.601 | 2.117 ± 0.047
x1 = 0.6932 | 2.08 ± 0.046
x1 = 0.7999 | 2.027 ± 0.046
x1 = 0.889 | 1.966 ± 0.046

O=S(=O)([N-]S(=O)(=O)C(F)(F)F)C(F)(F)F.OCCNCCO.[Li+] + O
viscosity [mPa·s], 101 kPa
Conditions | 313.15 K | 318.15 K | 323.15 K
x1 = 0.03 | 2.3 ± 0.15 | 1.83 ± 0.12 | 1.52 ± 0.1
x1 = 0.0601 | 4.57 ± 0.34 | 3.78 ± 0.27 | 3.28 ± 0.21
x1 = 0.0999 | 13.16 ± 0.96 | 10.06 ± 0.65 | 7.95 ± 0.45
x1 = 0.1922 | 61.51 ± 2.1 | 40.94 ± 1.4 | 28.08 ± 0.93
x1 = 0.2941 | 156.6 ± 12 | 98.53 ± 4.9 | 65.24 ± 1.9
x1 = 0.4028 | 299.2 ± 36 | 187.7 ± 17 | 123.7 ± 7.8
x1 = 0.4989 | 451.2 ± 67 | 285 ± 34 | 192.2 ± 18
x1 = 0.5999 | 629.9 ± 110 | 408.1 ± 58 | 281.1 ± 33
x1 = 0.7015 | 835.5 ± 160 | 557.5 ± 91 | 393.6 ± 55
x1 = 0.803 | 1078 ± 220 | 736.7 ± 130 | 530 ± 85
x1 = 0.9011 | 1370 ± 310 | 952.3 ± 190 | 694.7 ± 120

CCC(C)(C)OC + CO
298.15 K, 101.33 kPa
Conditions | viscosity [mPa·s]
x1 = 0.005 | 0.55 ± 0.005
x1 = 0.0339 | 0.554 ± 0.005
x1 = 0.0488 | 0.556 ± 0.005
x1 = 0.0714 | 0.557 ± 0.005
x1 = 0.1129 | 0.555 ± 0.005
x1 = 0.1508 | 0.552 ± 0.005
x1 = 0.1987 | 0.546 ± 0.005
x1 = 0.2009 | 0.546 ± 0.005
x1 = 0.2338 | 0.541 ± 0.005
x1 = 0.2861 | 0.532 ± 0.005
x1 = 0.3409 | 0.524 ± 0.005
x1 = 0.379 | 0.516 ± 0.005
x1 = 0.4252 | 0.508 ± 0.005
x1 = 0.4676 | 0.5 ± 0.005
x1 = 0.5142 | 0.491 ± 0.005
x1 = 0.5503 | 0.486 ± 0.005
x1 = 0.6236 | 0.477 ± 0.005
x1 = 0.6574 | 0.473 ± 0.005
x1 = 0.6944 | 0.468 ± 0.006
x1 = 0.7437 | 0.462 ± 0.006
x1 = 0.7936 | 0.457 ± 0.006
x1 = 0.8642 | 0.45 ± 0.006
x1 = 0.9029 | 0.446 ± 0.006

CC(=O)c1ccc(Cl)cc1 + CCOC(=O)OCC
303.15 K, 101 kPa
Conditions | viscosity [mPa·s]
x2 = 0.0511 | 2.657 ± 0.02
x2 = 0.1131 | 2.468 ± 0.018
x2 = 0.1611 | 2.309 ± 0.017
x2 = 0.2221 | 2.126 ± 0.015
x2 = 0.2808 | 1.948 ± 0.014
x2 = 0.3435 | 1.765 ± 0.013
x2 = 0.4256 | 1.557 ± 0.011
x2 = 0.5032 | 1.372 ± 0.01
x2 = 0.6089 | 1.162 ± 0.008
x2 = 0.6807 | 1.045 ± 0.007
x2 = 0.7618 | 0.927 ± 0.006
x2 = 0.8127 | 0.877 ± 0.006
x2 = 0.8641 | 0.825 ± 0.006
x2 = 0.9197 | 0.774 ± 0.005
x2 = 0.9678 | 0.725 ± 0.005

BrC(Br)Br + CCCO
viscosity [mPa·s], 101 kPa
Conditions | x1 = 0.0998 | x1 = 0.1979 | x1 = 0.2988 | x1 = 0.4005 | x1 = 0.5 | x1 = 0.5953 | x1 = 0.69 | x1 = 0.7999 | x1 = 0.9007
298.15 K | 1.964 ± 0.019 | 1.932 ± 0.019 | 1.879 ± 0.018 | 1.813 ± 0.017 | 1.782 ± 0.017 | 1.767 ± 0.017 | 1.768 ± 0.016 | 1.786 ± 0.016 | 1.853 ± 0.017
303.15 K | 1.737 ± 0.017 | 1.716 ± 0.017 | 1.681 ± 0.016 | 1.647 ± 0.016 | 1.623 ± 0.015 | 1.621 ± 0.015 | 1.632 ± 0.015 | 1.674 ± 0.015 | 1.734 ± 0.016
308.15 K | 1.543 ± 0.015 | 1.528 ± 0.015 | 1.506 ± 0.015 | 1.481 ± 0.014 | 1.481 ± 0.014 | 1.49 ± 0.014 | 1.505 ± 0.014 | 1.559 ± 0.014 | 1.618 ± 0.015
313.15 K | 1.363 ± 0.014 | 1.363 ± 0.014 | 1.354 ± 0.013 | 1.339 ± 0.013 | 1.352 ± 0.013 | 1.379 ± 0.013 | 1.393 ± 0.013 | 1.448 ± 0.013 | 1.515 ± 0.014

CC(C)(C)N + CCOCCO
308.15 K, 101 kPa
Conditions | viscosity [mPa·s]
x2 = 0.1082 | 0.5474 ± 0.056
x2 = 0.2145 | 0.6798 ± 0.07
x2 = 0.3189 | 0.8102 ± 0.083
x2 = 0.4214 | 0.9309 ± 0.096
x2 = 0.5221 | 1.046 ± 0.11
x2 = 0.6211 | 1.149 ± 0.12
x2 = 0.7182 | 1.245 ± 0.13
x2 = 0.8138 | 1.327 ± 0.14
x2 = 0.9077 | 1.399 ± 0.14

CCC(C)(C)OC + Cc1cccc(C)c1
viscosity [mPa·s], 100 kPa
Conditions | x1 = 0.0521 | x1 = 0.1462 | x1 = 0.2667 | x1 = 0.4165 | x1 = 0.4774 | x1 = 0.5331 | x1 = 0.6068 | x1 = 0.7371 | x1 = 0.8642 | x1 = 0.9512
293.15 K | 0.603 ± 0.03 | 0.584 ± 0.03 | 0.563 ± 0.03 | 0.539 ± 0.03 | 0.53 ± 0.03 | 0.521 ± 0.03 | 0.509 ± 0.03 | 0.487 ± 0.03 | 0.464 ± 0.03 | 0.448 ± 0.03
303.15 K | 0.542 ± 0.03 | 0.531 ± 0.03 | 0.518 ± 0.03 | 0.499 ± 0.03 | 0.489 ± 0.03 | 0.48 ± 0.03 | 0.468 ± 0.03 | 0.447 ± 0.03 | 0.426 ± 0.03 | 0.417 ± 0.03
313.15 K | 0.484 ± 0.03 | 0.47 ± 0.03 | 0.455 ± 0.03 | 0.439 ± 0.03 | 0.433 ± 0.03 | 0.427 ± 0.03 | 0.419 ± 0.03 | 0.404 ± 0.03 | 0.386 ± 0.03 | 0.375 ± 0.03

BrC(Br)Br + CCCCCCO
viscosity [mPa·s], 101.3 kPa
Conditions | x1 = 0.097 | x1 = 0.199 | x1 = 0.298 | x1 = 0.403 | x1 = 0.497 | x1 = 0.601 | x1 = 0.701 | x1 = 0.798 | x1 = 0.9
298.15 K | 4.186 ± 0.05 | 3.77 ± 0.046 | 3.34 ± 0.041 | 2.965 ± 0.036 | 2.667 ± 0.033 | 2.4 ± 0.03 | 2.192 ± 0.027 | 2.031 ± 0.025 | 1.922 ± 0.024
303.15 K | 3.573 ± 0.043 | 3.237 ± 0.04 | 2.907 ± 0.036 | 2.611 ± 0.032 | 2.37 ± 0.029 | 2.156 ± 0.027 | 1.988 ± 0.025 | 1.866 ± 0.024 | 1.784 ± 0.023
308.15 K | 3.092 ± 0.038 | 2.811 ± 0.035 | 2.537 ± 0.031 | 2.301 ± 0.029 | 2.114 ± 0.026 | 1.943 ± 0.024 | 1.815 ± 0.023 | 1.719 ± 0.022 | 1.663 ± 0.021

BrC(Br)Br + CCCCO
viscosity [mPa·s], 101.3 kPa
Conditions | x1 = 0.099 | x1 = 0.205 | x1 = 0.3 | x1 = 0.401 | x1 = 0.501 | x1 = 0.602 | x1 = 0.699 | x1 = 0.803 | x1 = 0.899
298.15 K | 2.482 ± 0.031 | 2.339 ± 0.029 | 2.196 ± 0.027 | 2.063 ± 0.026 | 1.955 ± 0.025 | 1.887 ± 0.024 | 1.847 ± 0.023 | 1.817 ± 0.023 | 1.827 ± 0.023
303.15 K | 2.183 ± 0.027 | 2.07 ± 0.026 | 1.942 ± 0.024 | 1.841 ± 0.023 | 1.768 ± 0.022 | 1.718 ± 0.022 | 1.695 ± 0.022 | 1.684 ± 0.021 | 1.709 ± 0.022
308.15 K | 1.915 ± 0.024 | 1.828 ± 0.023 | 1.738 ± 0.022 | 1.662 ± 0.021 | 1.607 ± 0.02 | 1.573 ± 0.02 | 1.559 ± 0.02 | 1.564 ± 0.02 | 1.588 ± 0.02
